Measurements as given in patent publication US20210329919A9, “SYNTHESIS AND ANTI-CANCER ACTIVITY OF COMMUNESIN ALKALOIDS” (Massachusetts Institute of Technology, priority 2019, published 2021).
Values after ≈ are worked out from the molar mass of the structure shown. Like-named read-outs stand apart in the source and are kept apart here.

Experiments:
[1] = test system: HCT-116 (colorectal carcinoma); assay: Cell viability assay (Cell Titer-Glo), HCT-116; format: cell-based, human; details: read-out: IC50 (μM) HCT-116
Procedure: (§1) Cells were grown in media supplemented with fetal bovine serum (FBS) and antibiotics ([…] and 100 U/mL streptomycin). Specifically, experiments were performed using the following cell lines and media compositions: HeLa (cervical adenocarcimona) and A549 (lung carcinoma) were grown in RPMI-1640+10% FBS; HCT-116 (colorectal carcinoma) was grown in DMEM+10% FBS; DU-145 (prostate carcinoma) and MCF7 (breast adenocarcinoma) were grown in EMEM+10% FBS. Cells were incubated at 37° C. in a 5% CO2, 95% humidity atmosphere.
(§2) Cells were plated at 2000 cells/well into duplicate assay plates in 50 L media into 384-well white, opaque, tissue-culture treated plates and allowed to adhere overnight at 37° C./5% CO2. Compounds were solubilized in DMSO as 1000× stocks and 100 nl was pin-transferred to cells (V&P pin tool mounted on Tecan Freedom Evo MCA96). Compounds were tested in 10-pt, 2-fold dilution with concentrations tested between 1 nM-20 μM for most compounds, except where indicated. DMSO (32 wells of 384-wells) was used as vehicle control. After 72 hours of incubation at 37° C./5% CO2, 10 L Cell Titer-Glo (Promega) was added to each well and plates were incubated at room temperature for 10 minutes before the luminescence was read on a Tecan M1000 plate reader. Cell Titer-Glo measures ATP levels of cells as a surrogate for cell viability. All compound-treated wells was normalized to the DMSO control averages and expressed as a % of DMSO viability. IC50 values were determined from the dose curves using Spotfire (Perkin Elmer).

[2] = test system: MCF7 (breast adenocarcinoma); assay: Cell viability assay (Cell Titer-Glo), MCF7; format: cell-based, human; details: read-out: IC50 (μM) MCF7
Procedure: as §1, §2

[3] = test system: HeLa (cervical adenocarcinoma); assay: Cell viability assay (Cell Titer-Glo), HeLa; format: cell-based, human; details: read-out: IC50 (μM) HeLa
Procedure: as §1, §2

[4] = test system: A549 (lung carcinoma); assay: Cell viability assay (Cell Titer-Glo), A549; format: cell-based, human; details: read-out: IC50 (μM) A549
Procedure: as §1, §2

[5] = test system: A549, DU-145, HCT116, HeLa and MCF7 cell lines; assay: Cytotoxicity across all five cancer cell lines (text summary of Table 1); details: for decrease in potency/activity relative to (−)-communesin B (4): N8-H or N8-formyl vs N8-methyl
Procedure: as §1, §2
With samples of all known communesin alkaloids and a selection of unnatural derivatives in hand, the anticancer activity for this entire class of natural products was explored. While previous isolation reports have evaluated the activity of selected natural communesins, no comprehensive comparison of the entire class of alkaloids across multiple cell lines has been performed.

[6] = test system: DU-145 (prostate carcinoma); assay: Cell viability assay (Cell Titer-Glo), DU-145; format: cell-based, human; details: read-out: IC50 (μM) DU-145
Procedure: as §1, §2

[7] = test system: third instar larvae of silkworms; details: cited from earlier work; for insecticidal activity compared with communesin B (4): silkworms
[8] = test system: vasculogenesis; details: in vivo; cited from earlier work
[9] = test system: P-388 lymphocytic leukemia cells; details: cultured mouse P-388 lymphocytic leukemia cells; cited from earlier work
[10] = test system: human leukemia cell lines; details: array of human leukemia cell lines; cited from earlier work
[11] = Homo sapiens, HCT-116, cytotoxicity after 72 h of compound treatment, Cell Titer-Glo (ATP levels)
[12] = Homo sapiens, MCF7, cytotoxicity after 72 h of compound treatment, Cell Titer-Glo (ATP levels)
[13] = Homo sapiens, cytotoxicity after 72 h of compound treatment, Cell Titer-Glo (ATP levels)
[14] = Homo sapiens, A549, cytotoxicity after 72 h of compound treatment, Cell Titer-Glo (ATP levels)
[15] = Homo sapiens, DU-145, cytotoxicity after 72 h of compound treatment, Cell Titer-Glo (ATP levels)
[16] = cytotoxicity after 72 h of compound treatment, Cell Titer-Glo (ATP levels)

## C/C=C/C=C/C(=O)N1CC[C@@]23c4ccccc4N[C@@H]4N(C=O)c5cccc6c5[C@@]42CCN([C@@H]13)[C@@H]6[C@H]1OC1(C)C [(+)-6, (+)-communesin D]
[1]; Homo sapiens, HCT-116, 72 h
  IC50: 111 µM
[2]; Homo sapiens, MCF7, 72 h
  IC50: > 125 µM
[3]; Homo sapiens, 72 h
  IC50: 63 µM
[4]; Homo sapiens, A549, 72 h
  IC50: > 125 µM
[5]
  decrease in potency/activity relative to (−)-communesin B (4): two- to threefold decrease in activity
[6]; Homo sapiens, DU-145, 72 h
  IC50: 84 µM

## CC(=O)N1CC[C@@]23c4ccccc4N[C@@H]4N(C=O)c5cccc6c5[C@@]42CCN([C@@H]13)[C@@H]6[C@H]1OC1(C)C [(+)-43, (+)-N8-formyl communesin E]
[1]; [11]
  IC50: > 250 µM
[2]; [12]
  IC50: > 250 µM
[3]; [13]
  IC50: > 125 µM
[4]; [14]
  IC50: > 250 µM
[5]
  cytotoxic potency across all cell lines (in words): principally inactive
[6]; [15]
  IC50: > 250 µM

## CC(=O)N1CC[C@@]23c4ccccc4N[C@@H]4N(C)c5cccc6c5[C@@]42CCN([C@@H]6C=C(C)C)[C@@H]13 [(−)-1, (−)-communesin F]
[1]; [16]
  IC50: > 125 µM
[2]; [16]
  IC50: 84 µM
[3]; [16]
  IC50: 115 µM
[4]; [16]
  IC50: 117 µM
[6]; [16]
  IC50: 119 µM

## CC(=O)N1CC[C@@]23c4ccccc4N[C@@H]4N(C)c5cccc6c5[C@@]42CCN([C@@H]13)[C@@H]6[C@H]1OC1(C)C [(−)-2, (−)-communesin A]
[1]; [11]
  IC50: > 250 µM
[2]; [12]
  IC50: > 250 µM
[3]; [13]
  IC50: > 125 µM
[4]; [14]
  IC50: > 125 µM
[5]
  cytotoxic potency across all cell lines (in words): principally inactive
[6]; [15]
  IC50: > 250 µM

## CC(=O)N1CC[C@@]23c4ccccc4N[C@@H]4Nc5cccc6c5[C@@]42CCN([C@@H]13)[C@@H]6[C@H]1OC1(C)C [(−)-3, (−)-communesin E]
[1]; [11]
  IC50: > 500 µM
[2]; [12]
  IC50: > 500 µM
[3]; [13]
  IC50: > 500 µM
[4]; [14]
  IC50: > 500 µM
[5]
  cytotoxic potency across all cell lines (in words): principally inactive
[6]; [15]
  IC50: > 500 µM

## C/C=C/C=C/C(=O)N1CC[C@@]23c4ccccc4N[C@@H]4N(C)c5cccc6c5[C@@]42CCN([C@@H]13)[C@@H]6[C@H]1OC1(C)C [(−)-4, (−)-communesin B]
[1]; [11]
  IC50: 60 µM
[2]; [12]
  IC50: 34 µM
[3]; [13]
  IC50: 47 µM
[4]; [14]
  IC50: 56 µM
[6]; [15]
  IC50: 45 µM

## C/C=C/C=C/C(=O)N1CC[C@@]23c4ccccc4N[C@@H]4Nc5cccc6c5[C@@]42CCN([C@@H]13)[C@@H]6[C@H]1OC1(C)C [(−)-5, (−)-communesin C]
[1]; Homo sapiens, HCT-116, 72 h
  IC50: 106 µM
[2]; Homo sapiens, MCF7, 72 h
  IC50: 65 µM
[3]; Homo sapiens, 72 h
  IC50: 94 µM
[4]; Homo sapiens, A549, 72 h
  IC50: 115 µM
[5]
  decrease in potency/activity relative to (−)-communesin B (4): two- to threefold decrease in activity
[6]; Homo sapiens, DU-145, 72 h
  IC50: 82 µM

## CCC(=O)N1CC[C@]23c4ccccc4N[C@H]4N(C)c5cccc6c5[C@]42CCN([C@H]6[C@@H]2OC2(C)C)[C@H]13 [(−)-7, (−)-communesin G]
[1]; [16]
  IC50: > 125 µM
[2]; [16]
  IC50: > 250 µM
[3]; [16]
  IC50: > 125 µM
[4]; [16]
  IC50: > 125 µM
[5]
  cytotoxic potency across all cell lines (in words): principally inactive
[6]; [16]
  IC50: > 125 µM

## CCCC(=O)N1CC[C@]23c4ccccc4N[C@H]4N(C)c5cccc6c5[C@]42CCN([C@H]6[C@@H]2OC2(C)C)[C@H]13 [(−)-8, (−)-communesin H]
[1]; [16]
  IC50: 109 µM
[2]; [16]
  IC50: 90 µM
[3]; [16]
  IC50: 82 µM
[4]; [16]
  IC50: > 125 µM
[6]; [16]
  IC50: > 125 µM

## CCC[C@H](O)CC(=O)N1CC[C@@]23c4ccccc4N[C@@H]4N(C)c5cccc6c5[C@@]42CCN([C@@H]13)[C@@H]6[C@H]1OC1(C)C [(−)-10, (−)-communesin I]
[1]; [16]
  IC50: > 125 µM
[2]; [16]
  IC50: 90 µM
[3]; [16]
  IC50: 120 µM
[4]; [16]
  IC50: 120 µM
[6]; [16]
  IC50: > 125 µM

## C/C=C/C=C/C(=O)N1CC[C@@]23c4ccccc4N[C@@H]4N(C)c5cccc6c5[C@@]42CCN([C@@H]13)[C@@H]6[C@H]1OC1(C)C [(−)-communesin B (4)]
[5]
  cytotoxic potency across all cell lines (in words): highest potency of all the natural products tested

## C/C=C/C=C/C(=O)N1CC[C@@]23c4ccccc4N[C@@H]4N(C)c5cccc6c5[C@@]42CCN([C@@H]13)[C@@H]6[C@H]1OC1(C)C [(−)-communesin B]
[5]; A549, DU-145, HCT116, HeLa, MCF7
  cytotoxic potency across all cell lines (in words): most potent natural isolate

## CC(=O)N1CC[C@@]23c4ccccc4N[C@@H]4N(C)c5cccc6c5[C@@]42CCN([C@@H]13)[C@@H]6[C@H]1OC1(C)C [Communesin A (2), (−)-communesin A]
[7]
  insecticidal activity compared with communesin B (4): lower insecticidal activities
[8]
  vasculogenetic activity: moderate vasculogenetic activity
[9]
  ED50, cytotoxicity: 3.5 µg/mL (≈ 7.67 µM)

## C/C=C/C=C/C(=O)N1CC[C@@]23c4ccccc4N[C@@H]4N(C)c5cccc6c5[C@@]42CCN([C@@H]13)[C@@H]6[C@H]1OC1(C)C [Communesin B (4), communesin B]
[7]; third instar larvae of silkworms, oral administration
  LD50, insecticidal: 5 μg/g of diet
[9]
  ED50, cytotoxicity: 0.45 µg/mL (≈ 0.885 µM)

## CC(=O)N1CC[C@@]23c4ccccc4N[C@@H]4N(C)c5cccc6c5[C@@]42CCN([C@@H]6C=C(C)C)[C@@H]13 [Communesin F (1), (−)-communesin F]
[7]
  insecticidal activity compared with communesin B (4): lower insecticidal activities

## C/C=C/C=C/C(=O)N1CC[C@@]23c4ccccc4N[C@@H]4Nc5cccc6c5[C@@]42CCN([C@@H]13)[C@@H]6[C@H]1OC1(C)C [communesin C (5), (−)-communesin C]
[10]
  anti-proliferative activity: moderate anti-proliferative activity

## C/C=C/C=C/C(=O)N1CC[C@@]23c4ccccc4N[C@@H]4N(C=O)c5cccc6c5[C@@]42CCN([C@@H]13)[C@@H]6[C@H]1OC1(C)C [communesin D (6), (+)-communesin D]
[10]
  anti-proliferative activity: moderate anti-proliferative activity
[7]
  insecticidal activity compared with communesin B (4): lower insecticidal activities
